Experimental data taken from patent US20200129476A1, “PARP Inhibitor in Combination with a Glucocorticoid and/or Ascorbic Acid and/or a Protein Growth Factor for the Treatment of Impaired Wound Healing” (AKRIBES BIOMEDICAL GMBH, priority 2017, published 2020).
Entries after “also recorded” stand apart in the source; their conditions may differ.

How the values were obtained:
[1] = test system: primary human dermal fibroblasts (HDF); experiment: Primary human dermal fibroblast (HDF) proliferation assay (2D), with or without wound exudate; type: cell-based; conditions: for HDF proliferation, PARP inhibitor alone: talazoparib 1 μM
[2] = test system: IL-1ß; experiment: IL-1ß secretion by HDF in the presence of wound exudate (ELISA); type: cell-based, human; conditions: FIG. 22; WE #43 and #78 used with veliparib
Method: Primary human dermal fibroblasts (HDF) were purchased from CELLnTEC, Bern. They were routinely grown in Dulbecco's modified Eagle's medium (DMEM) containing 10% FCS, 2 mM glutamine, and 100 U/ml penicillin/100 μg/ml streptomycin. Media, antibiotics, and glutamine were bought from Lonza. The cells were used at passage 5-15. Cells were trypsinized and seeded at 5000 cells/well in 200 μl into the inner wells of 96-well plates. The outer wells were loaded with sterile water. The cells were allowed to adhere overnight and then incubated for 72 hours at 37° C. under the following conditions: graded compound concentrations or 20 ng/ml PDGF-BB (Tonbo Biosciences) in the absence or presence of different dilutions of sterile-filtered WE in medium. For control samples, 200p1 medium was added instead of specific stimuli. Alternatively, the cells were seeded into 384-well plates at 2500 cells/well directly together with test compounds or growth factors and WE or medium in a total volume of […].
At the end of the 72-hour incubation period, supernatants were removed for the determination of IL-1ß, and the cells were fixed with 4% paraformaldehyde (Morphisto) for 15 minutes at room temperature and washed 3 times with PBS. A control plate was fixed after the overnight adherence of the cells (day 1) to determine the starting cell number.
IL-1ß levels were determined with a commercial ELISA kit. The amount of IL-1ß contained in the wound exudate added to the cells was subtracted from the total IL-ß in the supernatants in order to determine the cytokine secreted by the cells.

## C[C@]1(c2nc3c(C(N)=O)cccc3[nH]2)CCCN1 [veliparib, 2-((2R)-2-methylpyrrolidin-2-yl)-1H-benzimidazole-4-carboxamide]
[1]; FIG. 22, WE #43 and #78 used with veliparib
  cell proliferation under wound exudate-induced inhibition: enhanced cell proliferation
[1]; PARP inhibitor dose series + PDGF 20 ng/ml, WE #78 (FIG. 18)
  HDF proliferation, PARP inhibitor plus PDGF: even further enhanced by the addition of PDGF
[1]; WE from patients #49, #43, #78, #27
  effect on fibroblast proliferation compared across patients: most prominent in the two patients with diabetes
[1]; WE samples #77 and #78 of one patient (day 1 and day 8)
  reproducibility of effect on fibroblast proliferation: reproducible in different samples of the same patient
[1]; presence of WE #43
  fibroblast (HDF) proliferation: strongly beneficial effects
[1]; presence of WE #78 (diabetic patient)
  fibroblast (HDF) proliferation: completely reversed inhibition of wound exudate (WE)-induced fibroblast proliferation; also recorded: dose-dependent increase of HDF proliferation
[1]; presence of WE #78 (diabetic patient), listed as Veliparib
  fibroblast (HDF) proliferation: completely reversed inhibition of wound exudate (WE)-induced fibroblast proliferation; also recorded: strongly beneficial effects
[1]; presence of wound exudate (WE) of patients, several or unspecified WE
  fibroblast (HDF) proliferation: could be confirmed in a number of further wound exudate samples from other patients
[1]; veliparib 10 μM, talazoparib 1 μM + PDGF 20 ng/ml, WE #78 (FIG. 17B)
  HDF proliferation, PARP inhibitor plus PDGF: additively or synergistically enhanced by PDGF
[1]; veliparib 10 μM, WE #78 (FIG. 17B)
  HDF proliferation, PARP inhibitor alone: induce proliferation
[1]; veliparib 10 μM, absence of WE (FIG. 17A)
  HDF proliferation, PARP inhibitor alone: no or an inhibitory effect on fibroblasts on their own
[1]; veliparib 10 μM, absence of WE (FIG. 17A), listed as Veliparib
  HDF proliferation, PARP inhibitor alone: no or even an inhibitory effect on fibroblasts on their own
[2]
  IL-1ß secretion induced by wound exudate: reducing IL-1ß secretion
